For 20 molecules, Emax and EC50 results are on record in patent US20170066717A1, “NEW PHENYLAZETIDINECARBOXYLATE OR -CARBOXAMIDE COMPOUNDS” (INVENTIVA, priority 2014, published 2017).

One experiment deals with T1, NURR-1/RXRγ (Homo sapiens, UniProt P48443).
T1 construct: expressed in transfected cells; host or cells: Cos-7 cells
Nature of the experiment: Transactivation test, NURR-1-Gal4/RXRγ, luciferase reporter in Cos-7 cells. It counts as cell-based. The conditions noted are these: for Emax: COS-7, induction level relative to reference XCT0135908 at 2×10^−5 M (=100%), read-out: hNurr1_RXRgFL Emax (%); for EC50: Cos-7 cells, NURR-1-Gal4/RXRγ, luciferase reporter, read-out: hNurr1_RXRgFL EC50. (A reporter such as luciferase makes a cellular process visible.)

In the next experiment the target is T2, NURR-1/RXRα (Homo sapiens, UniProt P19793).
T2 construct: expressed in transfected cells; host or cells: Cos-7 cells
T2 sequence (P19793 whole entry): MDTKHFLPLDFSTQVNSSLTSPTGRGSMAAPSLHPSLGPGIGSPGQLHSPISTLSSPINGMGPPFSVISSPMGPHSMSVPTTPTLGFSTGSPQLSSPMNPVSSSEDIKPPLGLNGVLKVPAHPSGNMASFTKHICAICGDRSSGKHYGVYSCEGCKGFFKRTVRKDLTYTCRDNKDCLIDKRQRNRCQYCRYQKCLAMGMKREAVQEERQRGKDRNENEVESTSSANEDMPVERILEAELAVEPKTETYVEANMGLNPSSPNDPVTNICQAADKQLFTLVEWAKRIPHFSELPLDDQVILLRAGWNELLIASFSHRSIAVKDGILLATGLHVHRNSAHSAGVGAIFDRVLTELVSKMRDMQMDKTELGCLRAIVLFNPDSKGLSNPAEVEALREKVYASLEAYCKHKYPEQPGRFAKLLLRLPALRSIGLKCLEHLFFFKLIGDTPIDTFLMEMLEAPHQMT
T2 sequence (P43354 whole entry partner): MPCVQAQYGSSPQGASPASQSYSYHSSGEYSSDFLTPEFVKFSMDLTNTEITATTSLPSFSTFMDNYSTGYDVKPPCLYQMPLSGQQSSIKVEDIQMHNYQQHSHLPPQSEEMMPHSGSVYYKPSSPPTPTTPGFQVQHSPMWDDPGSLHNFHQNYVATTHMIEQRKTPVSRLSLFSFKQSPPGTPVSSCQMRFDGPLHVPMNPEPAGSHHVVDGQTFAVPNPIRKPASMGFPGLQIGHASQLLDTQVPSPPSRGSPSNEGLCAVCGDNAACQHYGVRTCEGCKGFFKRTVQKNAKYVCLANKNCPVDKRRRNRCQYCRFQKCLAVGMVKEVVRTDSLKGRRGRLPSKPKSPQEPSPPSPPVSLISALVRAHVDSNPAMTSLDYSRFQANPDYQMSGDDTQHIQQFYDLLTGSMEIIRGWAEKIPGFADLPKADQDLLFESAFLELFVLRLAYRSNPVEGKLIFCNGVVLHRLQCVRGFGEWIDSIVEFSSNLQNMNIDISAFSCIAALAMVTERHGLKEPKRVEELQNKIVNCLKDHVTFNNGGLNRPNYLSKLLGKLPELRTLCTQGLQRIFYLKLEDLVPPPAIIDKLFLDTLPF
T2 sequence (P04386 1-147 partner limits assumed): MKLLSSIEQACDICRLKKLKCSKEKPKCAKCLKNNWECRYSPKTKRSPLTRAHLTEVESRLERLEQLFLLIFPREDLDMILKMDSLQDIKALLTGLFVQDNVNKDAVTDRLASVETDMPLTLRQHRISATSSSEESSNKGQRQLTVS
Nature of the experiment: Transactivation test, NURR-1-Gal4/RXRα, luciferase reporter in Cos-7 cells. The conditions noted are these: for Emax: COS-7, induction level relative to reference XCT0135908 at 2×10^−5 M (=100%), read-out: hNurr1_RXRaFL Emax (%); for EC50: Cos-7 cells, NURR-1-Gal4/RXRα, luciferase reporter, read-out: hNurr1_RXRaFL EC50. It counts as cell-based.

T1 sequence (P48443 whole entry): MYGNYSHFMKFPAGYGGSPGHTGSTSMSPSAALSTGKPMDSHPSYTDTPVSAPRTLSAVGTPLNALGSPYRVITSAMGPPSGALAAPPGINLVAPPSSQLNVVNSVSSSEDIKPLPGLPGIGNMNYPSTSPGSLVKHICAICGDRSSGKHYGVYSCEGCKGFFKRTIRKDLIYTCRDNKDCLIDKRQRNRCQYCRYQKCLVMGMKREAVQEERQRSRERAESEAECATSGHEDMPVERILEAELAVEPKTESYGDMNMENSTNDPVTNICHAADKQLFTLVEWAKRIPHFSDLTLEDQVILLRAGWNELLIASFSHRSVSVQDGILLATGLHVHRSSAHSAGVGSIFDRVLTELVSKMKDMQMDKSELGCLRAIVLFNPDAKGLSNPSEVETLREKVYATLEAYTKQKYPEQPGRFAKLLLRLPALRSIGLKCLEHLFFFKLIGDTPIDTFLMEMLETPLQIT
T1 sequence (P43354 whole entry partner): as the sequence (P43354 whole entry partner) above
T1 sequence (P04386 1-147 partner limits assumed): as the sequence (P04386 1-147 partner limits assumed) above

As usually defined, the Emax is the size of the effect at its maximum, as opposed to the concentration needed. In general, EC50 refers to the midpoint of the concentration-response curve. In the case of `CN(C)c1nc(-c2cccc(N3CC(C(=O)O)C3)c2)cc(C(F)(F)F)n1` [Example 79, 1-[3-[2-(dimethylamino)-6-(trifluoromethyl)pyrimidin-4-yl]phenyl]azetidine-3-carboxylic acid], at NURR-1/RXRγ, the Emax stood at 88% and the concentration for a half-maximal effect (EC50) was 543 nM. For the same molecule, at NURR-1/RXRα, the Emax came to 115% and the EC50 is 177 nM.

With `CN(C)c1cc(C(F)(F)F)cc(-c2cccc(N3CC(C(=O)O)C3)c2)n1` [Example 80, 1-[3-[6-(dimethylamino)-4-(trifluoromethyl)2-pyridyl]phenyl]azetidine-3-carboxylic acid], at NURR-1/RXRγ, the Emax is 89% and the EC50 worked out at 335 nM. Besides, on NURR-1/RXRα, the maximal response (Emax) amounted to 104% and the EC50 was found to be 316 nM.

As to `CC(C)(C)c1cc(-c2cccc(N3CC(C(=O)O)C3)c2)nc(C(C)(C)C)n1` [Example 81, 1-[3-(2,6-di-tert-butylpyrimidin-4-yl)phenyl]azetidine-3-carboxylic acid], at NURR-1/RXRγ, the Emax was 107% and the EC50 is 112 nM. At NURR-1/RXRα, the Emax is 108% and the EC50 was 50 nM.

Turning to `O=C(O)C1CN(c2cccc(-c3cc(OC(F)(F)F)cc4cccnc34)c2)C1` [Example 83, 1-[3-[6-(trifluoromethoxy)-8-quinolyl]phenyl]azetidine-3-carboxylic acid], at NURR-1/RXRγ, the Emax was determined as 68% and the EC50 amounted to 596 nM. In addition, at NURR-1/RXRα, the Emax was found to be 67% and the EC50 was determined as 282 nM.

Turning to `CC(C)(C)c1cccc(-c2cccc(N3CC(C(=O)O)C3)c2)c1` [Example 84, 1-[3-(3-tert-butylphenyl)phenyl]azetidine-3-carboxylic acid], on NURR-1/RXRγ, the Emax worked out at 120% and the EC50 was determined as 82 nM. Besides, at NURR-1/RXRα, the Emax amounted to 112% and the concentration giving a half-maximal response (EC50) was determined as 44 nM.

As for `CC1(C(=O)O)CN(c2cccc(-c3ccc4c(c3)C(C)(C)CCC4(C)C)c2)C1` [Example 87], at NURR-1/RXRγ, the Emax turned out to be 38% and the EC50 was above 5000 nM. Further, at NURR-1/RXRα, the Emax was 69% and the EC50 was above 5000 nM.

Consider `CCCOc1ccc(C(F)(F)F)cc1-c1cccc(N2CC(C(=O)O)C2)c1` [Example 88, 1-[3-[2-propoxy-5-(trifluromethyl)phenyl]phenyl]azetidine-3-carboxylic acid], for which, at NURR-1/RXRγ, the Emax worked out at 80% and the EC50 amounted to 73 nM. In addition, at NURR-1/RXRα, the Emax worked out at 69% and the concentration for a half-maximal effect (EC50) is 60 nM.

Consider `CCCCOc1ccc(C(F)(F)F)cc1-c1cccc(N2CC(C(=O)O)C2)c1` [Example 89], for which, at NURR-1/RXRγ, the Emax is 64% and the EC50 came out at 21 nM. Also, at NURR-1/RXRα, the Emax was determined as 61% and the EC50 came to 23 nM.

With `O=C(O)C1CN(c2cccc(-c3cc(C(F)(F)F)ccc3OCc3ccccc3)c2)C1` [Example 90, 1-[3-[2-benzyloxy-5-(trifluoromethyl)phenyl]phenyl]azetidine-3-carboxylic acid], the Emax on NURR-1/RXRγ is 57%; at NURR-1/RXRα it was 67%. Further, the values for the EC50 at NURR-1/RXRγ and at NURR-1/RXRα were 7 nM and 6 nM, respectively.

`O=C(O)C1CN(c2cccc(-c3cc(C(F)(F)F)ccc3OCC3CCOC3)c2)C1` (centres unmarked) [Example 91]: on NURR-1/RXRγ, the Emax amounted to 77% and the EC50 is 282 nM. Moreover, at NURR-1/RXRα, the Emax was 43% and the EC50 is 278 nM.

As for `COc1cccc(COc2ccc(C(F)(F)F)cc2-c2cccc(N3CC(C(=O)O)C3)c2)c1` [Example 92, 1-[3-[2-[(3-methoxyphenyl)methoxy]-5-(trifluoromethyl)phenyl]phenyl]azetidine-3-carboxylic acid], the results for the maximal response (Emax) at NURR-1/RXRγ and at NURR-1/RXRα were 36% and 59%, respectively. The EC50 was 93 nM at NURR-1/RXRγ and 29 nM on NURR-1/RXRα.

For the molecule `O=C(O)C1CN(c2cccc(-c3cc(C(F)(F)F)ccc3OCCc3ccccc3)c2)C1` [Example 93, 1-[3-[2-phenyethyloxy-5-(trifluromethyl)phenyl]phenyl]azetidine-3-carboxylic acid], at NURR-1/RXRγ, the Emax was determined as 42% and the EC50 turned out to be 31 nM. Also, on NURR-1/RXRα, the Emax is 58% and the EC50 amounted to 33 nM.

In the case of `O=C(O)C1CN(c2cccc(-c3cc(C(F)(F)F)ccc3OCc3cccs3)c2)C1` [Example 96], on NURR-1/RXRγ, the maximal effect (Emax) came out at 96% and the EC50 turned out to be 10 nM. Besides, at NURR-1/RXRα, the Emax turned out to be 117% and the EC50 came to 7 nM.

Consider `O=C(O)C1CN(c2cccc(-c3cc(C(F)(F)F)ccc3OCc3ccccc3Cl)c2)C1` [Example 97, 1-[3-[2-[(2-chlorophenyl)methyoxy]-5-(trifluoromethyl)phenyl]phenyl]azetidine-3-carboxylic acid], for which the results for the maximal response (Emax) at NURR-1/RXRγ and at NURR-1/RXRα were 38% and 49%, respectively. Also, the EC50 at NURR-1/RXRγ was 13 nM; at NURR-1/RXRα it was 12 nM.

`O=C(O)C1CN(c2cccc(-c3cc(C(F)(F)F)ccc3OCc3ccc(F)cc3)c2)C1` [Example 99, 1-[3-[2-[(4-fluorophenyl),ethoxy]-5-(trifluroomethyl)phenyl]phenyl]azetidine-3-carboxylic acid]: at NURR-1/RXRγ, the maximal response (Emax) amounted to 51% and the EC50 turned out to be 19 nM. Besides, on NURR-1/RXRα, the Emax turned out to be 56% and the EC50 was found to be 17 nM.

As to `CC(C)C(Oc1ccc(C(F)(F)F)cc1-c1cccc(N2CC(C(=O)O)C2)c1)C(C)C` [Example 101, 1-[3-[2-(1-isopropyl-2-methlypropoxy)-5-(trifluoromethyl)phenyl]phenyl]azetidine-3-carboxylic acid], at NURR-1/RXRγ, the Emax was found to be 41% and the EC50 came out at 60 nM. Also, at NURR-1/RXRα, the Emax was 55% and the EC50 worked out at 118 nM.

`COCCOc1ccc(C(F)(F)F)cc1-c1cccc(N2CC(C(=O)O)C2)c1` [Example 102, 1-[3-[2-(2-methoxyethoxy)-5-(trifluoromethyl)phenyl]phenyl]azetidine-3-carboxylic acid]: the figures for the Emax at NURR-1/RXRγ and at NURR-1/RXRα were 94% and 97%, respectively. Further, the EC50 on NURR-1/RXRγ came out at 125 nM; at NURR-1/RXRα, 159 nM.

Take `CCC(CC)COc1ccc(C(F)(F)F)cc1-c1cccc(N2CC(C(=O)O)C2)c1` [Example 103, 1-[3-[2-(2-ethylbutoxy)-5-(trifluoromethyl)phenyl]phenyl]azetidine-3-carboxylic acid]: on NURR-1/RXRγ, the maximal response (Emax) was 58% and the EC50 came out at 17 nM. For the same molecule, on NURR-1/RXRα, the Emax amounted to 62% and the EC50 was 16 nM.

For `CCC(C)Oc1ccc(C(F)(F)F)cc1-c1cccc(N2CC(C(=O)O)C2)c1` (centres unmarked) [Example 105, 1-[3-[2-sec-butoxy-5-(trifluoromethyl)phenyl]phenyl]azetidine-3-carboxylic acid], on NURR-1/RXRγ, the maximal response (Emax) was 55% and the half-maximal effective concentration (EC50) stood at 19 nM. Further, on NURR-1/RXRα, the Emax was found to be 56% and the EC50 was 10 nM.

As for `Cc1cc(C)cc(COc2ccc(C(F)(F)F)cc2-c2cccc(N3CC(C(=O)O)C3)c2)c1` [Example 106, 1-[3-[2-[(3,5-dimethylphenyl)methoxy]-5-(trifluoromethyl)phenyl]phenyl]azetidine-3-carboxylic acid], at NURR-1/RXRγ, the Emax came to 36% and the concentration giving a half-maximal response (EC50) was 13 nM. In addition, at NURR-1/RXRα, the Emax stood at 40% and the EC50 amounted to 13 nM.
